The record followed here is ChEMBL document CHEMBL5291721, “A preclinical secondary pharmacology resource illuminates target-adverse drug reaction associations of marketed drugs” (Nat Commun, 2023).

Assay [1] has as its target T1, Prostaglandin G/H synthase 1 (Rattus norvegicus, UniProt Q63921).
T1 sequence (Q63921 whole entry): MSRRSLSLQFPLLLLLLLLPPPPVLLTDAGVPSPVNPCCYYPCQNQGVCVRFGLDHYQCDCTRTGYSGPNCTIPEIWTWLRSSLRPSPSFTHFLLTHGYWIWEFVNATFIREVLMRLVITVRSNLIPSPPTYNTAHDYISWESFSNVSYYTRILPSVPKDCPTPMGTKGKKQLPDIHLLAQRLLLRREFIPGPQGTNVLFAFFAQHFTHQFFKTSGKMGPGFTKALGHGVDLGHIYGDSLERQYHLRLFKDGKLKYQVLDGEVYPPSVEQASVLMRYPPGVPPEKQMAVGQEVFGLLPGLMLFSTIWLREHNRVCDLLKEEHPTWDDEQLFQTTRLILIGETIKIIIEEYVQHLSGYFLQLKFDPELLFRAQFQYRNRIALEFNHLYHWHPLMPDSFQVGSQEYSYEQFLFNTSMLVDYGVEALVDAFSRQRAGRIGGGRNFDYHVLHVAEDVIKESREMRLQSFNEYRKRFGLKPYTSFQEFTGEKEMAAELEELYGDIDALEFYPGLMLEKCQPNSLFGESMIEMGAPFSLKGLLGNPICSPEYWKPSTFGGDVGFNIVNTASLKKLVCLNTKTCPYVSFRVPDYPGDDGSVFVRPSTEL
The format is functional.

Assay [2] has as its target T2, Alpha-1A adrenergic receptor (Homo sapiens, UniProt P35348).
T2 sequence (P35348 whole entry): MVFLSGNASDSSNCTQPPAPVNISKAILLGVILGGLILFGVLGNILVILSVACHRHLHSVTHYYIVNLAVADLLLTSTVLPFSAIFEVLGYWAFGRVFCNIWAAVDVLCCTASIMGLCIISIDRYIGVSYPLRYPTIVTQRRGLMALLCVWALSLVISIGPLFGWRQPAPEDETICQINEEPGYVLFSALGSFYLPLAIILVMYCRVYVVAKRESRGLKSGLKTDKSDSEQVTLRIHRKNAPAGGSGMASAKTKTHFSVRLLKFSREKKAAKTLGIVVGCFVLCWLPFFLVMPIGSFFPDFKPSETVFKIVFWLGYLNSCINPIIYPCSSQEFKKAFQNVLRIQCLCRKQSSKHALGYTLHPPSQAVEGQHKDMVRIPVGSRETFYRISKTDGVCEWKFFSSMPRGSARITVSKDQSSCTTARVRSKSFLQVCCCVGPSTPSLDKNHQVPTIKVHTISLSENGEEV

Assay [3] concerns the target D(1A) dopamine receptor (Homo sapiens, UniProt P21728).
In assay [4] the target is Hydroxycarboxylic acid receptor 2 (Homo sapiens, UniProt Q8TDS4).
Hydroxycarboxylic acid receptor 2, sequence (Q8TDS4 whole entry): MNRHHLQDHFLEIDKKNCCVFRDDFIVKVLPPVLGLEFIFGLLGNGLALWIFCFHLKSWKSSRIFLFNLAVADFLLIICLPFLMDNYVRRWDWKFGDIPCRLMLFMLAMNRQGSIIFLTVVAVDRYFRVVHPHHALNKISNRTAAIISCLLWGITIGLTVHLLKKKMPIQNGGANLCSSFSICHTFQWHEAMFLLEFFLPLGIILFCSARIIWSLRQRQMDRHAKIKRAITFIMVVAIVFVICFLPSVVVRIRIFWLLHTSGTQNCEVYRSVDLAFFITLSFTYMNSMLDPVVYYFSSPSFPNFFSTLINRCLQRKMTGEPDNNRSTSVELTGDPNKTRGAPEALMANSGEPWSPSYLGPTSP
The target of assay [5] is T3, Type-1 angiotensin II receptor (Homo sapiens, UniProt P30556).
T3 sequence (P30556 whole entry): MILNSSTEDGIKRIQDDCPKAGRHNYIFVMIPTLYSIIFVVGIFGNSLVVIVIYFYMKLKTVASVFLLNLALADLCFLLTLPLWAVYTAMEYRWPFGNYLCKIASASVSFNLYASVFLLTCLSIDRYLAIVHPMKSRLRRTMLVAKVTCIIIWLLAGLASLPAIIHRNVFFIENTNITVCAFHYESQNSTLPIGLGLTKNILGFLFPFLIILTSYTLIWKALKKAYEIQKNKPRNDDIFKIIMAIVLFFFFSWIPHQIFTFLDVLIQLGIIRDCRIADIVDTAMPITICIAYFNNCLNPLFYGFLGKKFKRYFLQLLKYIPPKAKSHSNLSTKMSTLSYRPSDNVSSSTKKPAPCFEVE

The target of assay [6] is T4, Muscarinic acetylcholine receptor M4 (Homo sapiens, UniProt P08173).
T4 sequence (P08173 whole entry): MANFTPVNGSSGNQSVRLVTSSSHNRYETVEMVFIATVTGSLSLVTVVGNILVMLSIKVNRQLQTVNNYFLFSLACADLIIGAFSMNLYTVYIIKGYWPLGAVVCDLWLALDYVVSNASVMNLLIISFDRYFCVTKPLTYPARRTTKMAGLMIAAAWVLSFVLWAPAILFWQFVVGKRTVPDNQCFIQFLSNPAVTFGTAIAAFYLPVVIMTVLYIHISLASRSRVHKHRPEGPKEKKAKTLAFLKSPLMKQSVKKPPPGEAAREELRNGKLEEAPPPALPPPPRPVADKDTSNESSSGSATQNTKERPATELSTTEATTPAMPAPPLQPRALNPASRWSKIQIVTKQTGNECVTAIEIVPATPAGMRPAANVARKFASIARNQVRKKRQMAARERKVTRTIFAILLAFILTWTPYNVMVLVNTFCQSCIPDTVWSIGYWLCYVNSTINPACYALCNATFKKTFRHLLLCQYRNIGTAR

The target in assay [7] is D(1B) dopamine receptor (Homo sapiens, UniProt P21918).
D(1B) dopamine receptor, sequence (P21918 whole entry): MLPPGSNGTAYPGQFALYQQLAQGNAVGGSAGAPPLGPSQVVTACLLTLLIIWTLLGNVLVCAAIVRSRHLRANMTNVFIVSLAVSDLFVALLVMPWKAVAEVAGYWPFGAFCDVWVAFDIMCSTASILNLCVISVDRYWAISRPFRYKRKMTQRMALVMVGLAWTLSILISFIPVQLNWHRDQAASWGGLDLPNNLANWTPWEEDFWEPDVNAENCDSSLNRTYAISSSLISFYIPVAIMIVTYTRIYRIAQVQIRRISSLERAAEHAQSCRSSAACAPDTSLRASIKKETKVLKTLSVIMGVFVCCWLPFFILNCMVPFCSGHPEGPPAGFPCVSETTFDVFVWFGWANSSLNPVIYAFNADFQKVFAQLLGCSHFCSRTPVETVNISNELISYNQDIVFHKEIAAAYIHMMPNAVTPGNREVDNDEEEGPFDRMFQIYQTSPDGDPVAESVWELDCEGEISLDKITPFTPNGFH
The target of assay [8] is 5-hydroxytryptamine receptor 5A (Homo sapiens, UniProt P47898).
5-hydroxytryptamine receptor 5A, sequence (P47898 whole entry): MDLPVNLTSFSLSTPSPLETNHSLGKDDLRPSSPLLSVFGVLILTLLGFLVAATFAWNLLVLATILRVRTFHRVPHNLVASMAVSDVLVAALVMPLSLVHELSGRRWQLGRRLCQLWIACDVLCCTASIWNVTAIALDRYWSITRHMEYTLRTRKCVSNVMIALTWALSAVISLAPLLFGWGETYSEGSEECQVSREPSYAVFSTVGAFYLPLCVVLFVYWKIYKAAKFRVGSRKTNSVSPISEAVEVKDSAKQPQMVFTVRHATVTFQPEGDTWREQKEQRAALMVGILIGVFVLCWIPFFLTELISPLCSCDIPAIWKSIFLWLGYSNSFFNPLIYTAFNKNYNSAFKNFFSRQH
Assay [9] has as its target Rod cGMP-specific 3',5'-cyclic phosphodiesterase subunit alpha (Homo sapiens, UniProt P16499). The format is functional.
Assay [10] deals with Beta-1 adrenergic receptor (Homo sapiens, UniProt P08588). The format is functional, cell-based.
Beta-1 adrenergic receptor, sequence (P08588 whole entry): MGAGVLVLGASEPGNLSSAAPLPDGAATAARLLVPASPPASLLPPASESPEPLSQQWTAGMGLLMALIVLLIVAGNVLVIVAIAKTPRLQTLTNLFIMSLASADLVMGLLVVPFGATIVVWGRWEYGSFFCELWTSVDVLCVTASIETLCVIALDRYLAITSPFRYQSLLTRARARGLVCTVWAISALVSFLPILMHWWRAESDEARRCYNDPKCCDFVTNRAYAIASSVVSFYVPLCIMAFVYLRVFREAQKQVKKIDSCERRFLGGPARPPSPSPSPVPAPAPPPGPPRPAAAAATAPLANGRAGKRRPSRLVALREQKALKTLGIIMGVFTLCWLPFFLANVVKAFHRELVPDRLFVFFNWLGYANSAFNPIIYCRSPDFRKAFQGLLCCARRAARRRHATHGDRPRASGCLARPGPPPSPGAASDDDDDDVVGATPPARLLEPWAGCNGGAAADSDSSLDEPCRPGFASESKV
Assay [11] deals with T3, Type-1 angiotensin II receptor. This is another data set of the same source.
For assay [12], the target named is Type-2 angiotensin II receptor (Homo sapiens, UniProt P50052). In kind it is functional.
Type-2 angiotensin II receptor, sequence (P50052 whole entry): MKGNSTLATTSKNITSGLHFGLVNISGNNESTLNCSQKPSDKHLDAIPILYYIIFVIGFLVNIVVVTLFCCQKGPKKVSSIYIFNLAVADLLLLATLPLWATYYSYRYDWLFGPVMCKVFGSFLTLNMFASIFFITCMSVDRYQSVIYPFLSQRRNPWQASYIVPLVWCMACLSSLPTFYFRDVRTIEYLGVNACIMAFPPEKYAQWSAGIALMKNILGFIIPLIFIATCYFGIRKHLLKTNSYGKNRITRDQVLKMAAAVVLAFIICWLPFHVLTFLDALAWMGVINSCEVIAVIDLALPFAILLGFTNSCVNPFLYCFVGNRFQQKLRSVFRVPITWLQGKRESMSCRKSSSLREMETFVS
Assay [13] concerns the target 5-hydroxytryptamine receptor 2B (Homo sapiens, UniProt P41595).
In assay [14] the target is T5, Alpha-2A adrenergic receptor (Homo sapiens, UniProt P08913).
T5 sequence (P08913 whole entry): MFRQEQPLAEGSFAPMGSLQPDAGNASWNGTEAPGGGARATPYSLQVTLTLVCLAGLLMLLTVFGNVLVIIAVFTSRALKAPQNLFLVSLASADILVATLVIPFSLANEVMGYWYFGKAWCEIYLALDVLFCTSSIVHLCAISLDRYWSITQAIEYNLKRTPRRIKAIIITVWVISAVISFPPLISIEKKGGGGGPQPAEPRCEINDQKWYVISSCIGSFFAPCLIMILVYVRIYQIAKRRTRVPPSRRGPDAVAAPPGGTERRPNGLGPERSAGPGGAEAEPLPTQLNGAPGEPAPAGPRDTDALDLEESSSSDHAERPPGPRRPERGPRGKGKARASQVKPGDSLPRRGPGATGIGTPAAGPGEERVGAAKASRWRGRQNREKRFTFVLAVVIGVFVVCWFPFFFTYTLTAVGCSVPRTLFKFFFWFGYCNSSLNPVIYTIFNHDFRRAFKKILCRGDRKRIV

Bounds are passed on as bounds.
Note: assay procedure not described here.

Rod cGMP-specific 3',5'-cyclic phosphodiesterase subunit alpha, sequence (P16499 whole entry): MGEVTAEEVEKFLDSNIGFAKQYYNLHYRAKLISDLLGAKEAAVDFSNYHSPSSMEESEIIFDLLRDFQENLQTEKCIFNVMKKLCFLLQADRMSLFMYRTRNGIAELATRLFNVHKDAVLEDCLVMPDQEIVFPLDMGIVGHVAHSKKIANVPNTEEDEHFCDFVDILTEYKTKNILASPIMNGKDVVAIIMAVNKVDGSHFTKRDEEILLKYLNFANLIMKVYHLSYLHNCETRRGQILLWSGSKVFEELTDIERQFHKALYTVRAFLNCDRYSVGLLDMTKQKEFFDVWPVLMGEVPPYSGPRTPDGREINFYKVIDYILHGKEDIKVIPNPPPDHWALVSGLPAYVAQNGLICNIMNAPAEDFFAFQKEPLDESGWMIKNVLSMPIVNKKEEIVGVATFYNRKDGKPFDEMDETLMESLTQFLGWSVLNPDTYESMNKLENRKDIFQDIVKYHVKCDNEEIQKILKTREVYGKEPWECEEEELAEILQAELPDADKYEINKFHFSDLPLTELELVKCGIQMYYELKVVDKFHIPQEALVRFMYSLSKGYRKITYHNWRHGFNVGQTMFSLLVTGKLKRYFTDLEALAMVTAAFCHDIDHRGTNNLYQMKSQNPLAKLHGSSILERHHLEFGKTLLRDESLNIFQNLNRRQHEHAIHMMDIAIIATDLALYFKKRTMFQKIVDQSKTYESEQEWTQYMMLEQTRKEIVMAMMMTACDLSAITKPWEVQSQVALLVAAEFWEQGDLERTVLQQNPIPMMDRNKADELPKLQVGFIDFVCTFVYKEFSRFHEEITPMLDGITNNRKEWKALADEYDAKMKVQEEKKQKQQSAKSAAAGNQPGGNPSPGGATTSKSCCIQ
D(1A) dopamine receptor, sequence (P21728 whole entry): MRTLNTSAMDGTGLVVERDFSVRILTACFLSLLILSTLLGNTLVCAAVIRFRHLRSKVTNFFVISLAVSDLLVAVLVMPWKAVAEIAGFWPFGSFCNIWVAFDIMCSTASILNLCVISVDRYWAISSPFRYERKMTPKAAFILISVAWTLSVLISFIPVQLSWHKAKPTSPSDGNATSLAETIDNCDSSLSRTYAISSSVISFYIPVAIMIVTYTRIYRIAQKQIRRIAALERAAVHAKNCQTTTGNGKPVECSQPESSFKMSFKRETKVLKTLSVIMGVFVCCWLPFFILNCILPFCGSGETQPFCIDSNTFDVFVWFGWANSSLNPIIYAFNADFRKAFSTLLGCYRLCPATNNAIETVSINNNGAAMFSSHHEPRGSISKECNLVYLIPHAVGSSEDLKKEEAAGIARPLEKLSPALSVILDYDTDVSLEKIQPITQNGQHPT
5-hydroxytryptamine receptor 2B, sequence (P41595 whole entry): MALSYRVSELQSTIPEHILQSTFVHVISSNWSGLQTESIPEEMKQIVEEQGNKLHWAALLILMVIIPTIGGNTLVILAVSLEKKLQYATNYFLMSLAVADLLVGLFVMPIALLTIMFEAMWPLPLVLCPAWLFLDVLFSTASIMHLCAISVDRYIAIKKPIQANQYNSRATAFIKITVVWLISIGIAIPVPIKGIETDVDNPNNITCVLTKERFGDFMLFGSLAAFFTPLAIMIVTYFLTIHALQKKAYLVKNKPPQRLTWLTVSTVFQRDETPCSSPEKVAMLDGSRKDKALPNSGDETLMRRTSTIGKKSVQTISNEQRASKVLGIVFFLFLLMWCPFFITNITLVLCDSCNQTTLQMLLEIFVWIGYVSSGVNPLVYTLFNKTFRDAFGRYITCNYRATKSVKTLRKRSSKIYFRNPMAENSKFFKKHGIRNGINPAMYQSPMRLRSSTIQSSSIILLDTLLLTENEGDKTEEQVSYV

For `CC(C)COCC(CN(Cc1ccccc1)c1ccccc1)N1CCCC1` (stereo not drawn) [BEPRIDIL], the AC50 in assay [1] was above 30 µM. Turning to `C=C1CC[C@H](O)C/C1=C/C=C1\CCC[C@]2(C)[C@@H]([C@H](C)/C=C/[C@H](C)C(C)C)CC[C@@H]12` [ERGOCALCIFEROL], the AC50 in [2] is 24.7 µM; in assay [3] it was above 30 µM.

Take `CCC(=O)O[C@]1(C(=O)SCF)[C@H](C)C[C@H]2[C@@H]3C[C@H](F)C4=CC(=O)C=C[C@]4(C)[C@@]3(F)[C@@H](O)C[C@@]21C` [FLUTICASONE PROPIONATE]: the AC50 in [4] is above 10 µM. Molecule `CC(C)NCC(O)c1ccc(O)c(O)c1` (stereo not drawn) [ISOPROTERENOL] had an AC50 in assay [5] above 100 µM. Regarding `CN1CCN(C2=Nc3ccccc3Oc3ccc(Cl)cc32)CC1` [LOXAPINE], the AC50 was 3.73 µM in [6], 0.248 µM in [7], 1.04 µM in [8] and above 10 µM in assay [9].

For the molecule `CC(C(=O)O)c1ccc(CC2CCCC2=O)cc1` (stereo not drawn) [LOXOPROFEN], in assay [10], the AC50 was above 30 µM. Turning to `OC1(c2ccc(Cl)cc2)c2ccccc2C2=NCCN21` (stereo not drawn) [MAZINDOL], the AC50 in [6], in assay [7], in assay [8] and in assay [9] was above 10 µM in each case.

In the case of `O=[N+]([O-])c1ccc(O)c2ncccc12` [NITROXOLINE], the half-maximal activity concentration (AC50) in assay [2] and in assay [3] was above 30 µM throughout. Consider `CCCc1nc(C(C)(C)O)c(C(=O)O)n1Cc1ccc(-c2ccccc2-c2nnn[nH]2)cc1` [OLMESARTAN], for which the results for the AC50 in [11] and in [12] were 0.0008 µM and 54 µM, respectively. For `CCCN[C@H]1CCc2nc(N)sc2C1` [PRAMIPEXOLE], the AC50 in [13] amounted to 18.4 µM.

`C[C@H](Cc1cc2c(c(C(N)=O)c1)N(CCCO)CC2)NCCOc1ccccc1OCC(F)(F)F` [SILODOSIN] yielded an AC50 in assay [14] of 6.2 µM.

`Clc1ccc(C(Cn2ccnc2)OCc2ccsc2Cl)c(Cl)c1` (stereo not drawn) [TIOCONAZOLE] had an AC50 in [1] of 14 µM. As to `Cc1cc(C(C)(C)C)cc(C)c1CC1=NCCN1` [XYLOMETAZOLINE], the AC50 in assay [10] is above 30 µM; in assay [14], 0.005 µM.
